Columns and labels:
LAPC-4 = assay: MTT growth inhibition, prostate cancer cell line LAPC-4; type: cell-based, human; details: Homo sapiens, LAPC4; MTT assay; average of three independent experiments
Description: (§1) This MTT assay was carried using human prostate cancer cell lines CWR22R, LAPC-4 and LnCap using Promega cell titer 96 nonradioactive cell proliferation kits. Cells were trypsinized and centrifuged at 1000 rpm for 5 minutes and the supernatant was aspirated. Cells were resuspended with HBSS to a concentration of 10^6/ml. Cell suspension was diluted in serum containing medium to plate 2000 cells/well/0.2 ml. Cell suspension was transferred to sterile solution basin. Cells were plated using multichannel pipette set at 200 μl and incubated overnight for attachment. One plate was prepared for day 0 MTT assay as follows: 100 μl of media was removed from each well using multichannel pipette and 15 μl of MTT reagent was added. Plates were incubated at 37° C. for 4 hrs. […] of STOP solution was added to each well and incubated at room temperature for 1 hour. Absorbance was measured at 570 and 650 nm on plate reader. All the media from the remaining plates were carefully removed and the cells were treated with the media containing drug. MTT assays were done on days 0, 3, 5 and 7. In the preliminary screening […] BPU sulfur analogs 6l, 6h, 6n, 7d and 8h were screened and their activity was compared with compound 1.
(§2) Compounds with significant inhibitory activity in pancreatic cancer cells were further evaluated against prostate cancer cell lines in the MTT assay, (Mosmann, T., J. Immunol. Methods 65:55-63 (1983)) and the results were compared to those for compound 1 (Table 3).

ASPC1 = assay: MTT growth inhibition, pancreatic cell line ASPC1; type: cell-based; details: Homo sapiens, ASPC1; MTT assay, 96 h treatment; average of three independent experiments
Description: (§3) Eight of these analogs 6d, 6h, 6n, 6g, 7b, 7d, 8g, and 8h were tested for their cytotoxicity in seven pancreatic cell lines ASPC1, Panc1, Panc203, Panc430, Pane 1005, MiaPaca2, and HS766T using MTT assay. Cells were trypsinized, seeded at 5×10^3 cells/well in 96-well plate and allowed to grow for 24 hours before the treatment with exponential increasing concentrations of drugs in the presence of 10% FBS. After a 96-hours period of treatment, 20 μl of MTT solution (5 mg/ml in PBS) were added to each well, and the plates were then incubated for 3 hours at 37° C. Medium was then replaced with 100 μl of DMSO per well. Plates were shaken and the optical density was measured at 570 nm using a multiwell plate reader (Bio-Rad, Model 550, Bio-Rad Inc., Hercules, Calif.). Each experiment was performed in triplicate for each drug concentration and was carried out independently at least 3 times. The IC50 value was defined as the concentration needed for a 50% reduction in the absorbance calculated based on the survival curves. Response to drug treatment was assessed by standardizing treatment groups to untreated controls. Compounds activity was compared with compound 1.
(§4) Table 2 (Growth Inhibition of Pancreatic Cancer Cell Lines by BPU and BPTU Analogues (IC50) a) compares the cytotoxicity of a series of new derivatives against a panel of seven pancreatic cancer cell lines, as determined by MTT assay. See, Mosmann, T., J. Immunol. Methods 65:55-63 (1983).

Panc203 = assay: MTT growth inhibition, pancreatic cell line Panc203; type: cell-based; details: Homo sapiens, Panc203; MTT assay, 96 h treatment; average of three independent experiments
Description: as §3, §4

LnCaP = assay: MTT growth inhibition, prostate cancer cell line LnCaP; type: cell-based, human; details: Homo sapiens, LNCaP; MTT assay; average of three independent experiments
Description: as §1, §2

Panc430 = assay: MTT growth inhibition, pancreatic cell line Panc430; type: cell-based; details: MTT assay, 96 h treatment; average of three independent experiments
Description: as §3, §4

CWR22R = assay: MTT growth inhibition, prostate cancer cell line CWR22R; type: cell-based, human; details: Homo sapiens, 22Rv1; MTT assay; average of three independent experiments
HS766 = assay: MTT growth inhibition, pancreatic cell line HS766; type: cell-based; details: Homo sapiens, Hs 766; MTT assay, 96 h treatment; average of three independent experiments
Description: as §3, §4

Panc1 = assay: MTT growth inhibition, pancreatic cell line Panc1; type: cell-based; details: Homo sapiens, PANC-1; MTT assay, 96 h treatment; average of three independent experiments
Description: as §3, §4

Miapaca2 = assay: MTT growth inhibition, pancreatic cell line Miapaca2; type: cell-based; details: Homo sapiens, MIA PaCa-2; MTT assay, 96 h treatment; average of three independent experiments
Description: as §3, §4

Panc1005 = assay: MTT growth inhibition, pancreatic cell line Panc1005; type: cell-based; details: Homo sapiens, Panc1005; MTT assay, 96 h treatment; average of three independent experiments
Description: as §3, §4

tubulin = assay: Inhibition of [3H]colchicine binding; details: Tubulin 1 μM; [3H]colchicine and inhibitor at 5 μM

SMILES | IC50 (LAPC-4) [µM] | IC50 (ASPC1) [µM] | IC50 (Panc203) [µM] | IC50 (LnCaP) [µM] | IC50 (Panc430) [µM] | IC50 (CWR22R) [µM] | IC50 (Panc1) [µM] | IC50 (Miapaca2) [µM] | IC50 (Panc1005) [µM] | IC50 (HS766) [µM] | colchicine binding (% ± SD), inhibition of [3H]colchicine binding (tubulin) [%]
O=C(NC(=O)c1ccccc1[N+](=O)[O-])Nc1ccc(S(=O)(=O)c2ncc(Br)cn2)cc1 [Compound 8h, 1-[4-(5-Bromopyrimidine-2-sulfonyl)phenyl]-3-(2-nitrobenzoyl)-urea] | 4 | > 10 | > 10 | 0.5 | > 10 | > 10 | > 10 | 6.1 | > 10 | > 10 | 
COc1cc([C@@H]2c3cc4c(cc3[C@H](O)[C@H]3COC(=O)[C@H]23)OCO4)cc(OC)c1OC [podophyllotoxin, reference compound] |  |  |  |  |  |  |  |  |  |  | 77 ± 8
Brc1cnc(Sc2ccc(N=CON=COc3ccccc3)cc2)nc1 [Compound 6g] |  | > 10 | 7.5 |  | 2 |  | > 10 | 5 | > 10 | 5.5 | 

Now from value to compound, other results behind:

IC50 (LAPC-4) [µM] | IC50 (ASPC1) [µM] | IC50 (Panc203) [µM] | IC50 (LnCaP) [µM] | IC50 (Panc430) [µM] | IC50 (CWR22R) [µM] | IC50 (Panc1) [µM] | IC50 (Miapaca2) [µM] | IC50 (Panc1005) [µM] | SMILES | IC50 (HS766) [µM] | colchicine binding (% ± SD), inhibition of [3H]colchicine binding (tubulin) [%]
0.6 |  |  | 0.5 |  | 5 |  |  |  | O=[N+]([O-])c1ccccc1OC=NOC=Nc1ccc(Sc2ncccn2)cc1 [Compound 6l] |  | 
 | 6 | 5.5 |  | 6.5 |  | 7.5 | 7 | > 10 | Nc1ccccc1OC=NOC=Nc1ccc(Sc2ncccn2)cc1 [Compound 7b] | 8 | 

Reference: US20090099218A1, “SYNTHESIS OF NOVEL TUBULIN POLYMERIZATION INHIBITORS: BENZOYLPHENYLUREA (BPU) SULFUR ANALOGS” (priority 2007, published 2009)
